37 compounds from patent publication US8426447B2, “Spiro-tricyclic ring compounds as beta-secretase modulators and methods of use” (Amgen Inc., priority 2008, dated 2013) can be followed below.

The structures appear in SMILES notation.

Test [1] has as its target T1, BACE1 (Homo sapiens, UniProt P56817). Put plainly: In Vitro Enzymatic BACE FRET (Fluorescence Resonance Energy Transfer) Assay. The test is classed as biochemical. Conditions: read-out: BACE1 FRET assay. The method in brief:
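Acetate buffer at pH 4.2 with 10% DMSO and 100 uM genapol hosts the enzymatic reaction, initiated by 50 nM FRET substrate and allowed to proceed one hour. Tris quench to neutral pH precedes the fluorescence measurement.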

The target in test [2] is T1, BACE1. Put plainly: In Vitro BACE Cell-based Assay (HEK cell assay): Aβ40 in conditioned medium of cells stably expressing Amyloid Precursor Protein, sandwich ELISA. The conditions noted are these: read-out: HEK cell assay. The method in brief:
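Read-out is time-resolved fluorescence of Aβ40 in supernatant, captured by pAb40 and detected with biotinylated 6E10 plus Streptavidin-Europium. Cells stably expressing APP received compounds for 24 h over 10 concentrations starting at 100 μM or 10 μM, final DMSO 0.1%.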
In general terms: In an ELISA, binding on a coated surface is turned into a signal by an enzyme label.

Where [3] appears, read: in vitro BACE FRET enzyme assay, IC50 class symbols.
[4] abbreviates: HEK cell-based assay, Aβ40 in conditioned medium, IC50 class symbols.

T1 sequence (P56817 46-501, species assumed): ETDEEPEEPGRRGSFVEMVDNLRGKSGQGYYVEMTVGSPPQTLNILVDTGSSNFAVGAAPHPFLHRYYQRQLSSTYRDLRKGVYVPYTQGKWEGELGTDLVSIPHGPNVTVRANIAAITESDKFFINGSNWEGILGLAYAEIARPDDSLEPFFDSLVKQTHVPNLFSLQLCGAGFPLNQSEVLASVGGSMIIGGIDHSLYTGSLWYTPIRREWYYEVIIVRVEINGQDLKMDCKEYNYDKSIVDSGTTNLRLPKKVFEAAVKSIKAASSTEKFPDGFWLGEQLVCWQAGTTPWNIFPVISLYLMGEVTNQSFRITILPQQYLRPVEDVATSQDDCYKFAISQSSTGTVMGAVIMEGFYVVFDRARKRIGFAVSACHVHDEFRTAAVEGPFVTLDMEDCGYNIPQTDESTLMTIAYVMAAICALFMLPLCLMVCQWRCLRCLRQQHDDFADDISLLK

In the case of `CC(C)(C)OC(=O)Cc1ccc2c(c1)[C@]1(COC(N)=N1)c1cc(-c3cccnc3)ccc1O2` [compound 706], the IC50 in test [1] and in test [2] was 0.1 to 1 µM in each case.

As to `NC1=NC2(CO1)c1cc(-c3cccnc3)ccc1Oc1c2cc(-c2cccnc2)nc1F` (centres unmarked) [compound 301, 1-fluoro-3,7-di(pyridin-3-yl)-5′H-spiro[chromeno[2,3-c]pyridine-5,4′-oxazol]-2′-amine], the IC50 in test [1] (setting [3]) and in test [2] (setting [4]) was less than 0.1 µM throughout.

For the compound `CCOC(=O)/C=C/c1ccc2c(c1)[C@]1(COC(N)=N1)c1cc(-c3cncnc3)ccc1O2` [compound 825], the IC50 in test [1] (Table IV, class symbols) lay within 0.1 to 1 µM; in test [2] (Table IV, class symbols), 0.1 to 1 µM.

Regarding `CON(C)C(=O)COc1ccc2c(c1)[C@]1(COC(N)=N1)c1cc(-c3cccnc3)ccc1O2` [compound 788], the IC50 in test [1] and in test [2] was 1 to 5 µM in each case.

For `CC(C)(C)COc1ccc2c(c1)[C@]1(COC(N)=N1)c1cc(C3=CCOCC3)ccc1O2` [compound 755], the IC50 in test [1] fell in the range of 0.1 to 1 µM; in test [2] it was 1 to 5 µM.

On to `NC1=N[C@]2(CO1)c1ccccc1Oc1ccc(-c3cccnc3)cc12` [compound 684], for which the IC50 in test [1] and in test [2] was 0.1 to 1 µM in each case.

Consider `COC(C)(C)COc1cnc2c(c1)[C@@]1(COC(N)=N1)c1cc(-c3ccccc3)ccc1O2` [compound 349], for which the values for the IC50 in test [1] (setting [3]) and in test [2] (setting [4]) were 0.1 to 1 µM and 1 to 5 µM, respectively.

For the compound `CCOCC(=O)Nc1ccc2c(c1)[C@@]1(COC(N)=N1)c1cc(OC)ccc1O2` [compound 376], the IC50 in test [1] (setting [3]) and in test [2] (setting [4]) was 0.1 to 1 µM each time.

Consider `CC(C)(C)COc1ccc2c(c1)[C@@]1(COC(N)=N1)c1cc(-c3ccc(OCC4CC4)nc3)cnc1O2` [compound 741], for which the IC50 in test [1] and in test [2] was less than 0.1 µM throughout.

As to `CC(C)(C)CC(=O)c1ccc2c(c1)[C@]1(COC(N)=N1)c1cc(-c3ccc(F)nc3)ccc1O2` [150a], the IC50 in test [1] (Table III, IC50's in uM ranges) was less than 0.1 µM; in test [2] (Table III, IC50's in uM ranges) it was 0.1 to 1 µM.

For `COc1ccc2c(c1)[C@@]1(COC(N)=N1)c1cc(Br)cc(F)c1O2` [compound 378], the IC50 in test [1] (setting [3]) is 1 to 5 µM; in test [2] (setting [4]) it was more than 5 µM.

For the compound `NC1=N[C@@]2(CO1)c1cc(-c3cccnc3F)ccc1Oc1ccc(Cl)nc12` [compound 392], the IC50 in test [1] (setting [3]) and in test [2] (setting [4]) was 0.1 to 1 µM throughout.

With `NC1=N[C@@]2(CO1)c1cc(-c3cccnc3F)ccc1Oc1ccc(C3CCOCC3)nc12` [compound 338], the IC50 in test [1] (setting [3]) and in test [2] (setting [4]) was less than 0.1 µM throughout.

Consider `CC1(COc2ccc3c(c2)[C@]2(COC(N)=N2)c2cc(-c4ccccc4F)cnc2O3)COC1` [compound 746], for which the IC50 in test [1] was less than 0.1 µM; in test [2], 0.1 to 1 µM.

For the compound `CC(C)(C)C#Cc1ccc2c(c1)C1(COC(N)=N1)c1cc(C#CC(C)(C)C)ccc1O2` [compound 930], the IC50 in test [1] was in the range of 0.1 to 1 µM; in test [2], 1 to 5 µM.

Take `COC1CN(c2ccc3c(c2)[C@]2(COC(N)=N2)c2cc(-c4cccnc4)ccc2O3)C1` [compound 604]: the IC50 in test [1] (Table IV, class symbols) was less than 0.1 µM; in test [2] (Table IV, class symbols) it was less than 0.1 µM.

Regarding `NC1=N[C@]2(CO1)c1cc(C#CC3(O)COC3)ccc1Oc1ccc(-c3cccnc3)cc12` [compound 685], the IC50 in test [1] and in test [2] was less than 0.1 µM throughout.

With `CC1(C#Cc2cnc3c(c2)[C@]2(COC(N)=N2)c2cc(-c4cc(Cl)ccc4F)ccc2O3)COC1` [compound 521, (5S)-7-(5-chloro-2-fluorophenyl)-3-((3-methyl-3-oxetanyl)ethynyl)spiro[chromeno[2,3-b]pyridine-5,4′-[1,3]oxazol]-2′-amine], the IC50 in test [1] and in test [2] (HEK cells) was less than 0.1 µM throughout.

Take `CC(C)(O)C#Cc1ccc2c(c1)[C@@]1(COC(N)=N1)c1cc(C#CC(C)(C)O)cnc1O2` [compound 935]: the IC50 in test [1] and in test [2] was 0.1 to 1 µM in each case.

Turning to `CC1(C)CN(c2cc(F)c3c(c2)[C@]2(COC(N)=N2)c2cc(-c4cncnc4)ccc2O3)CCO1` [compound 505], the IC50 in test [1] and in test [2] (HEK cells) was less than 0.1 µM each time.

Take `CC(C)(C)OC(=O)n1c(-c2ccc3c(c2)[C@@]2(COC(N)=N2)c2ccccc2O3)cc2ccccc21` [compound 568]: the IC50 in test [1] (Table IV, class symbols) was more than 5 µM; in test [2] (Table IV, class symbols) it was more than 5 µM.

Regarding `NC1=N[C@]2(CO1)c1cc(OCC3CC3(F)F)ccc1Oc1ccc(-c3cncnc3)cc12` (stereo partly drawn) [Example 62, (4S)-2′-((2,2-difluorocyclopropyl)methoxy)-7′-(5-pyrimidinyl)spiro[1,3-oxazole-4,9′-xanthen]-2-amine], the IC50 in test [1] (Table II) was less than 0.1 µM; in test [2] (Table II, Aβ40, 24 h incubation) it was less than 0.1 µM.

In the case of `COC(C)(C)C#Cc1ccc2c(c1)[C@]1(COC(N)=N1)c1cc(-c3cccnc3)cnc1O2` [208b], the IC50 in test [1] (Table III, IC50's in uM ranges) was less than 0.1 µM; in test [2] (Table III, IC50's in uM ranges) it was less than 0.1 µM.

For the compound `COc1cc(F)c2c(c1)[C@]1(COC(N)=N1)c1cc(-c3cncnc3)ccc1O2` [compound 581], the IC50 in test [1] (Table IV, class symbols) was less than 0.1 µM; in test [2] (Table IV, class symbols), less than 0.1 µM.

Regarding `CC1(C)CC(c2cc(F)c3c(c2)[C@]2(COC(N)=N2)c2cc(-c4cncnc4)ccc2O3)=CCO1` [compound 465], the IC50 in test [1] and in test [2] (HEK cells) was less than 0.1 µM in each case.

With `Cc1cncc(-c2ccc3c(c2)[C@@]2(COC(N)=N2)c2cc(Cl)ncc2O3)c1` [compound 327], the results for the IC50 in test [1] (setting [3]) and in test [2] (setting [4]) were 0.1 to 1 µM and 1 to 5 µM, respectively.

As for `COc1ccc2c(c1)[C@@]1(COC(N)=N1)c1cc(C3=CCOCC3)cc(F)c1O2` [compound 364], the IC50 in test [1] (setting [3]) fell in the range of 0.1 to 1 µM; in test [2] (setting [4]), 1 to 5 µM.

As for `COc1ccc(-c2ccc3c(c2)[C@]2(COC(N)=N2)c2cc(-c4cccnc4)ccc2O3)o1` [compound 711], the figures for the IC50 in test [1] and in test [2] were less than 0.1 µM and 0.1 to 1 µM, respectively.

Turning to `NC1=N[C@]2(CO1)c1ccccc1Oc1ccc(-c3cccc4ncccc34)cc12` [compound 627], the IC50 is more than 5 µM in test [1] (Table IV, class symbols) and more than 5 µM in test [2] (Table IV, class symbols).

`COC(=O)c1ccc(-c2ccc3c(c2)[C@]2(COC(N)=N2)c2cc(-c4cccnc4)ccc2O3)s1` [compound 722]: the IC50 in test [1] and in test [2] was less than 0.1 µM throughout.

Regarding `NC1=N[C@]2(CO1)c1cc(/C=C/C(=O)O)ccc1Oc1ccc(-c3cccnc3)cc12` [compound 949], the IC50 in test [1] is less than 0.1 µM; in test [2] it was more than 5 µM.

On to `CC(C)(C)/C=C/c1ccc2c(c1)[C@]1(COC(N)=N1)c1cc(-c3cncnc3)ccc1O2` [compound 963], for which the IC50 in test [1] and in test [2] was less than 0.1 µM throughout.

For the compound `NC1=N[C@]2(CO1)c1cc(Br)ccc1Oc1ccc(Oc3ccccn3)cc12` [compound 198, (4S)-2′-bromo-7′-(2-pyridinyloxy)spiro[1,3-oxazole-4,9′-xanthen]-2-amine], the IC50 is 0.1 to 1 µM in test [1] (Table III, IC50's in uM ranges) and 1 to 5 µM in test [2] (Table III, IC50's in uM ranges).

Consider `CC1(COc2cc3c(cc2F)Oc2ccc(-c4cncnc4)cc2[C@@]32COC(N)=N2)COC1` [compound 712], for which the IC50 in test [1] and in test [2] was less than 0.1 µM throughout.

On to `COC(C)(C)C#Cc1cnc2c(c1)[C@@]1(COC(N)=N1)c1cc(-c3cccnc3)ccc1O2` [compound 719], for which the IC50 in test [1] and in test [2] was 0.1 to 1 µM throughout.

Regarding `NC1=N[C@]2(CO1)c1ccccc1Oc1ccc(-c3c(F)ccnc3F)cc12` [compound 599], the IC50 was 0.1 to 1 µM in test [1] (Table IV, class symbols) and 1 to 5 µM in test [2] (Table IV, class symbols).

On to `CC(=O)Cc1ccc2c(c1)[C@]1(COC(N)=N1)c1cc(-c3cccnc3)ccc1O2` [compound 658], for which the IC50 in test [1] (Table IV, class symbols) was 0.1 to 1 µM; in test [2] (Table IV, class symbols), 0.1 to 1 µM.
